From ChEMBL document CHEMBL3351420, “Liver X receptor (LXR) partial agonists: biaryl pyrazoles and imidazoles displaying a preference for LXRβ” (Bioorg Med Chem Lett, 2015)
The source made the active and inactive calls. The rule behind the calls is not given here.

Experiments:
Liver X receptor [1] = molecular target: T1, Liver X receptor (Homo sapiens, UniProt Q13133+P55055); assay: Transactivation of LXR in human whole blood assessed as induction of ABCA1 after 4 hrs by SYBR-Green quantitative PCR analysis
T1 sequence (Q13133 whole entry): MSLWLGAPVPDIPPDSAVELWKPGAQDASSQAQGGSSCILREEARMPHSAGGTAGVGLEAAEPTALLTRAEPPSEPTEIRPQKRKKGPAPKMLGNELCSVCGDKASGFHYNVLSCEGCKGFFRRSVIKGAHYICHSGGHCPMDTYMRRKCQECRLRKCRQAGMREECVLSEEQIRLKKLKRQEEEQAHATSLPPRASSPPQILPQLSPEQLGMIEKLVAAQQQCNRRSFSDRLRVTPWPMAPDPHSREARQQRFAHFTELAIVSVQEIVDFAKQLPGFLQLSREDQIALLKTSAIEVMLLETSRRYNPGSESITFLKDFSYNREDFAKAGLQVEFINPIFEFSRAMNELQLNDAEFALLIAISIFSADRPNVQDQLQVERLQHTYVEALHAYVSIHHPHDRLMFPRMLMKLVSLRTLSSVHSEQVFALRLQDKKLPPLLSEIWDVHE
T1 sequence (P55055 whole entry): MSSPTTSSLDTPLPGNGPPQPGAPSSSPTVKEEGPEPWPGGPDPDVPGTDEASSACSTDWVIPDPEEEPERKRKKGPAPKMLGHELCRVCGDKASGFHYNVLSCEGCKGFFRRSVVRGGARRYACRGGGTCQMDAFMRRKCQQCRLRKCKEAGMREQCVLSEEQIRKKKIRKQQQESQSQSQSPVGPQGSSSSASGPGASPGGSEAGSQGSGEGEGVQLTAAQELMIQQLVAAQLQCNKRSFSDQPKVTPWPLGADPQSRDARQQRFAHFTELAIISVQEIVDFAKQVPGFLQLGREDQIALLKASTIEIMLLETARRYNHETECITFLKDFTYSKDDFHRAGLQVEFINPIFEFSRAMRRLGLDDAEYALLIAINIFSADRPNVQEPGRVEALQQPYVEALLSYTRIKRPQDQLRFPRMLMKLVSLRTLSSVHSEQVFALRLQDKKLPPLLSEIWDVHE

[2] = molecular target: Retinoic acid receptor RXR-alpha/oxysterols receptor LXR-alpha (Homo sapiens, UniProt Q13133); assay: Binding affinity to LXRalpha-RXRalpha heterodimer (unknown origin) expressed in insect cells by scintillation proximity assay
[3] = molecular target: T2, Oxysterols receptor LXR-beta (Homo sapiens, UniProt P55055); assay: Transactivation of LXRbeta (unknown origin) expressed in CV1 cells by luciferase reporter gene assay; format: cell-based, CV-1
T2 sequence (P55055 whole entry): T1 sequence (P55055 whole entry)

[4] = Plasma concentration in mouse at 30 mg/kg, po measured at 4 hrs post dose; format: ADME, organism-based; design: dose 30 mg/kg, route oral
Liver X receptor [5] = molecular target: T1, Liver X receptor; assay: Transactivation of LXR (unknown origin) expressed in human HeLa cells by ABCA1 LXREx3 reporter assay; format: cell-based
[6] = Drug uptake in mouse liver at 30 mg/kg, po measured at 24 hrs post dose; format: ADME, organism-based; design: dose 30 mg/kg, route oral; conditions: read-out: Drug uptake
[7] = molecular target: Retinoic acid receptor RXR-alpha/oxysterols receptor LXR-beta (Homo sapiens, UniProt P55055); assay: Binding affinity to LXRbeta-RXRalpha heterodimer (unknown origin) expressed in insect cells by scintillation proximity assay
[8] = Plasma concentration in mouse at 30 mg/kg, po measured at 24 hrs post dose; format: ADME, organism-based; design: dose 30 mg/kg, route oral
[9] = molecular target: T3, Oxysterols receptor LXR-alpha (Homo sapiens, UniProt Q13133); assay: Transactivation of LXRalpha (unknown origin) expressed in CV1 cells by luciferase reporter gene assay; format: cell-based, CV-1
T3 sequence (Q13133 whole entry): T1 sequence (Q13133 whole entry)

[10] = molecular target: Liver X receptor (Homo sapiens) (UniProt Q13133+P55055); assay: Transactivation of LXR in human whole blood assessed as induction of ABCA1 after 4 hrs by SYBR-Green quantitative PCR analysis relative to 1-(2,4-difluorobenzyl)-2-oxo-6-(4-phenoxyphenyl)-4-(trifluoromethyl)-1,2-dihydropyridine-3-carbonitrile
Mus musculus [11] = assay: Elevation of hepatic triglyceride in C57BL/6 mouse at 3 to 30 mg/kg for 7 days measured 24 hrs post last dose relative to control; format: ADME, organism-based; design: dose 3-30 mg/kg; conditions: in vivo
Mus musculus [12] = assay: Induction of SREBP1c mRNA in C57BL/6 mouse liver at 30 mg/kg for 7 days measured 24 hrs post last dose relative to control; format: organism-based; design: dose 30 mg/kg; conditions: C57BL/6, 24 h, read-out: FC
[13] = Plasma concentration in C57BL/6 mouse at 3 mg/kg, po measured at 5 hrs post dose; format: ADME, organism-based; design: dose 3 mg/kg, route oral
Mus musculus [14] = assay: Elevation of plasma triglyceride in C57BL/6 mouse at 3 to 10 mg/kg for 7 days measured 24 hrs post last dose relative to control; format: ADME, organism-based; design: dose 3-10 mg/kg; conditions: in vivo
[15] = Plasma concentration in C57BL/6 mouse at 10 mg/kg, po measured at 5 hrs post dose; format: ADME, organism-based; design: dose 10 mg/kg, route oral
Mus musculus [16] = assay: Elevation of plasma triglyceride in C57BL/6 mouse at 30 mg/kg for 7 days measured 24 hrs post last dose relative to control; format: ADME, organism-based; design: dose 30 mg/kg; conditions: in vivo
Mus musculus [17] = assay: Elevation of hepatic triglyceride in C57BL/6 mouse at 30 mg/kg for 7 days measured 24 hrs post last dose relative to control; format: ADME, organism-based; design: dose 30 mg/kg; conditions: in vivo
[18] = Plasma concentration in C57BL/6 mouse at 30 mg/kg, po measured at 5 hrs post dose; format: ADME, organism-based; design: dose 30 mg/kg, route oral
Mus musculus [19] = assay: Induction of ABCG1 mRNA induction in C57BL/6 mouse blood cells at 3 to 30 mg/kg for 7 days measured 5 hrs post last dose relative to control; format: functional, organism-based
Mus musculus [20] = assay: Induction of SREBP1c mRNA in C57BL/6 mouse liver at 10 mg/kg for 7 days measured 24 hrs post last dose relative to control; format: organism-based; design: dose 10 mg/kg; conditions: C57BL/6, 24 h, read-out: FC
Mus musculus [21] = assay: Induction of ABCA1 mRNA induction in C57BL/6 mouse blood cells at 3 to 30 mg/kg for 7 days measured 5 hrs post last dose relative to control; format: functional, organism-based

Chain of Retinoic acid receptor RXR-alpha/oxysterols receptor LXR-beta (P19793 whole entry, one chain of several): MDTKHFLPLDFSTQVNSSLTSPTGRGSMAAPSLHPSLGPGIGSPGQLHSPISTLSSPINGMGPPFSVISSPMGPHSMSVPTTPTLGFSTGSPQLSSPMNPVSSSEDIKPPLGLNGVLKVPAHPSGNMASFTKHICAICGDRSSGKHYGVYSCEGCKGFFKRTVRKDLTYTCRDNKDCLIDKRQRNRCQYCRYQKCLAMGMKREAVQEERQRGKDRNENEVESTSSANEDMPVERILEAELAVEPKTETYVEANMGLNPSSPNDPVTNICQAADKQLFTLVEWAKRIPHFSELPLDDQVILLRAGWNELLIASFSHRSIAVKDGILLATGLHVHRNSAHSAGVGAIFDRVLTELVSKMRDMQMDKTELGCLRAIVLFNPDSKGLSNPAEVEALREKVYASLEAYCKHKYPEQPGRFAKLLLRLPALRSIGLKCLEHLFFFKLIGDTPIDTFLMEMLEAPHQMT
Chain of Retinoic acid receptor RXR-alpha/oxysterols receptor LXR-alpha (P19793 whole entry, one chain of several): as above

Row | SMILES | EC50 (Liver X receptor [1]) [nM] | Ki [2] [nM] | EC50 [3] [nM] | concentration at 4 h [4] [nM] | EC50 (Liver X receptor [5]) [nM] | concentration at 24 h [6] [nM] | Ki [7] [nM] | concentration at 24 h [8] [nM] | EC50 [9] [nM] | Efficacy [10] [%] | also measured
1 | CC(C)(O)c1cn(-c2ccc(-c3cccc(S(C)(=O)=O)c3)cc2)c(Cc2ccccc2C(F)(F)F)n1 | 3100 | 66 | 140 | 6000 | 27 | 200 | 7 | 20 | 200 | 30 | –
2 | CC(C)(O)c1cn(-c2ccc(-c3cccc(S(C)(=O)=O)c3)cc2)c(-c2ccccc2Cl)n1 | 8300 | 1600 | 600 | 14000 | 140 | 13200 | 59 | 2000 | > 10000 | 31 | –
3 | CS(=O)(=O)c1cccc(-c2ccc(-c3cc(C(F)(F)F)nn3-c3ccccc3C(F)(F)F)s2)c1 | – | 240 | 68 | 6900 | 8 | – | 16 | 4100 | 120 | – | –
4 | CC(C)(O)c1cn(-c2ccc(-c3cccc(S(C)(=O)=O)c3)cc2)c(C(C)(C)c2ccccc2Cl)n1 [BMS-779788] | 1200 | 68 | 250 | 5400 | 33 | < 50 | 14 | 40 | 230 | 55 | Activity (Mus musculus [11]): Non-toxic; fold induction at 30 mg/kg (Mus musculus [12]): 3.5; concentration at 5 h [13]: 50 nM; Activity (Mus musculus [14]): Non-toxic; concentration at 5 h [15]: 200 nM; Activity (Mus musculus [16]): 74%; Activity (Mus musculus [17]): Non-toxic; concentration at 5 h [18]: 2000 nM; Activity (Mus musculus [19]): Active; fold induction at 10 mg/kg (Mus musculus [20]): 2.7; Activity (Mus musculus [21]): Active
5 | COC(=O)c1cc(-c2ccc(-c3cccc(S(C)(=O)=O)c3)s2)n(-c2ccccc2Cl)n1 | – | 150 | 64 | – | 310 | – | 10 | – | 65 | – | –
6 | CS(=O)(=O)c1cccc(-c2cccc(-c3cc(C(F)(F)F)nn3-c3ccccc3Cl)c2)c1 | – | 300 | 230 | 6600 | 38 | 1000 | 31 | 300 | 320 | – | –
7 | CC(C)(O)c1cc(-c2ccc(-c3cccc(S(C)(=O)=O)c3)s2)n(-c2ccccc2Cl)n1 | – | 1500 | 620 | – | 800 | – | 83 | – | 540 | – | –
8 | CC(C)(O)c1cn(-c2ccc(-c3cccc(S(C)(=O)=O)c3)cc2)c(-c2c(Cl)cccc2Cl)n1 | 7000 | 2500 | 670 | 18500 | 140 | 4400 | 54 | 600 | > 10000 | 38 | –
9 | CS(=O)(=O)c1cccc(-c2ccc(-c3cc(C(F)(F)F)nn3-c3ccccc3Cl)cc2)c1 | 480 | 180 | 49 | 600 | 13 | 7800 | 13 | 400 | 220 | 49 | –
10 | CS(=O)(=O)c1cccc(-c2ccc(-c3cc(C(F)(F)F)nn3-c3ccccc3Cl)s2)c1 | – | 68 | 110 | – | 9 | – | 12 | – | 140 | – | –

Now those with a lower Ki [2], led by results:

Row | EC50 (Liver X receptor [1]) [nM] | Ki [2] [nM] | EC50 [3] [nM] | concentration at 4 h [4] [nM] | EC50 (Liver X receptor [5]) [nM] | concentration at 24 h [6] [nM] | Ki [7] [nM] | concentration at 24 h [8] [nM] | EC50 [9] [nM] | Efficacy [10] [%] | SMILES | also measured
11 | – | 61 | 61 | 1200 | 5 | 32000 | 11 | 2300 | 52 | – | CS(=O)(=O)c1cccc(-c2ccc(-n3cc(C(F)(F)F)nc3-c3ccccc3Cl)cc2)c1 | –
12 | – | 36 | 320 | – | 40 | – | 9 | – | 570 | – | Cc1cc(CC(=O)O)ccc1-c1ccc(-c2cc(C(F)(F)F)c(C#N)c(=O)n2Cc2ccc(F)cc2F)s1 | fold induction at 30 mg/kg (Mus musculus [12]): 7.7; fold change (FC) (Mus musculus [17]): 4.8
13 | – | 26 | 20 | – | 7 | – | 9 | – | 20 | – | N#Cc1c(C(F)(F)F)cc(-c2ccc(Oc3ccccc3)cc2)n(Cc2ccc(F)cc2F)c1=O | –
14 | 3200 | 25 | 66 | 1300 | 12 | 1500 | 1 | 400 | 85 | 62 | CC(C)(O)c1cn(-c2ccc(-c3cccc(S(C)(=O)=O)c3)cc2)c(Cc2ccccc2Cl)n1 | –
15 | – | 20 | 14 | – | – | – | 7 | – | 18 | – | CS(=O)(=O)c1cccc(-c2ccc(-c3cc(C(F)(F)F)nn3Cc3ccc(F)cc3F)s2)c1 | –
16 | – | 11 | 2 | – | – | – | 11 | – | 4 | – | CS(=O)(=O)c1cccc(-c2ccc(-c3cc(C(F)(F)F)c(C#N)c(=O)n3Cc3ccc(F)cc3F)s2)c1 | –
